Results reported in patent US9321764B2, “Dihydro-pyrrolopyridinone inhibitors” (AbbVie Inc., priority 2013, dated 2016).

Experiments:
[1] = tested on: breast cancer cell line MX-1; experiment: MX-1 cell line proliferation assay; type: cell-based; settings: Homo sapiens, MX1, 72 h, MX-1 cells, 3-day proliferation assay, Cell Titer Glo; read-out: Cellular proliferation EC50
Outline: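 Final compound concentrations spanned 0.0001 to 3 μM, added to 5000 cells/well plated the previous night in RPMI 1640 plus 10% FBS at 37 °C.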

BRD4 (BDI_K57-E168) = biological target: T1, BRD4 (BDI_K57-E168) (Homo sapiens, UniProt O60885); experiment: TR-FRET bromodomain binding assay, first bromodomain of BRD4; settings: His-tagged BD1, 100 nM Alexa647 probe; TR-FRET protocol A-E given per row
T1 construct: BD1: amino acids K57-E168; made in house
Outline: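 Ki values come from IC50s (4-parameter logistic) corrected for probe Kd and concentration, normalised to no-compound and 1 μM unlabelled probe controls. Probe displacement by TR-FRET used 8 nM BD1 (K57-E168), 100 nM Alexa647 probe, 1 nM Eu-anti-His, 20 mM phosphate pH 6.0, 2% DMSO, 1 h, room temperature.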

BRD4 (BDII_E352-M457) = biological target: T2, BRD4 (BDII_E352-M457) (Homo sapiens, UniProt O60885); experiment: TR-FRET bromodomain binding assay, second bromodomain of BRD4; settings: His-tagged BD2, 30 nM Alexa647 probe; TR-FRET protocol A-E given per row
T2 construct: proliferation; Protocol; made in house
Outline: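 His-tagged BRD4 BD2 ([…]) competed against an Alexa647-labelled BET-inhibitor probe in TR-FRET. Buffer was 20 mM sodium phosphate pH 6.0, 50 mM NaCl, 1 mM EDTA, 0.01% Triton X-100, 1 mM DTT, with method D DMSO series of 2.5 mM–800 nM (stock range). IC50 from 4-parameter fit, Ki from probe Kd and concentration.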

Row | Compound | EC50 [1] [nM] | Ki (BRD4 (BDI_K57-E168)) [nM] | Ki (BRD4 (BDII_E352-M457)) [nM]
1 | Cn1cc(-c2cc(CNS(=O)(=O)Cc3ccc(C(F)(F)F)cc3)ccc2Oc2ccc(F)cc2F)c2cc[nH]c(=O)c21 [Example 133, N-[4-(2,4-difluorophenoxy)-3-(1-methyl-7-oxo-6,7-dihydro-1H-pyrrolo[2,3-c]pyridin-3-yl)benzyl]-1-[4-(trifluoromethyl)phenyl]methanesulfonamide] | 1680 | 49 | 2680
2 | CCS(=O)(=O)c1ccc(Oc2ccc(C#N)cc2)c(-c2cn(C)c3c(=O)[nH]ccc23)c1 [Example 78, 4-[4-(ethylsulfonyl)-2-(1-methyl-7-oxo-6,7-dihydro-1H-pyrrolo[2,3-c]pyridin-3-yl)phenoxy]benzonitrile] | 88 | 20 | 73
3 | COC1CCN(Cc2ccc(Oc3ccc(F)cc3F)c(-c3cn(C)c4c(=O)[nH]ccc34)c2)CC1 [Example 115, 3-{2-(2,4-difluorophenoxy)-5-[(4-methoxypiperidin-1-yl)methyl]phenyl}-1-methyl-1,6-dihydro-7H-pyrrolo[2,3-c]pyridin-7-one] | 1420 | 1350 | 1330
4 | Cn1cc(-c2cc(S(C)(=O)=O)ccc2O[C@H]2CC[C@H](O)CC2)c2cc[nH]c(=O)c21 [Example 34, 3-{2-[(trans-4-hydroxycyclohexyl)oxy]-5-(methylsulfonyl)phenyl}-1-methyl-1,6-dihydro-7H-pyrrolo[2,3-c]pyridin-7-one] | 95 | 1.6 | 29
5 | CCS(=O)(=O)Nc1ccc(Oc2ccc(F)cc2F)c(-c2cn(C)c3c(=O)[nH]c(C(=O)N4CCCC4)cc23)c1 [Example 193, N-{4-(2,4-difluorophenoxy)-3-[1-methyl-7-oxo-5-(pyrrolidin-1-ylcarbonyl)-6,7-dihydro-1H-pyrrolo[2,3-c]pyridin-3-yl]phenyl}ethanesulfonamide] | 111 | 4.3 | 41.3
6 | Cn1cc(-c2cc(S(C)(=O)=O)ccc2NCC2CC2)c2cc[nH]c(=O)c21 [Example 44, 3-{2-[(cyclopropylmethyl)amino]-5-(methylsulfonyl)phenyl}-1-methyl-1,6-dihydro-7H-pyrrolo[2,3-c]pyridin-7-one] | 136 | 14 | 89
7 | Cn1cc(-c2cc(CNS(=O)(=O)Cc3ccc(C#N)cc3)ccc2Oc2ccc(F)cc2F)c2cc[nH]c(=O)c21 [Example 134, 1-(4-cyanophenyl)-N-[4-(2,4-difluorophenoxy)-3-(1-methyl-7-oxo-6,7-dihydro-1H-pyrrolo[2,3-c]pyridin-3-yl)benzyl]methanesulfonamide] | 456 | 103 | 518
8 | CNS(=O)(=O)Cc1ccc(Oc2ccc(F)cc2F)c(-c2cn(C)c3c(=O)[nH]ccc23)c1 [Example 100, 1-[4-(2,4-difluorophenoxy)-3-(1-methyl-7-oxo-6,7-dihydro-1H-pyrrolo[2,3-c]pyridin-3-yl)phenyl]-N-methylmethanesulfonamide] | 9 | 4.1 | 4.8
9 | CCS(=O)(=O)Nc1ccc(OCC2CC2)c(-c2cn(C)c3c(=O)[nH]ccc23)c1C [Example 14, N-[4-(cyclopropylmethoxy)-2-methyl-3-(1-methyl-7-oxo-6,7-dihydro-1H-pyrrolo[2,3-c]pyridin-3-yl)phenyl]ethanesulfonamide] | 506 | 73 | 1340
10 | Cn1cc(-c2cc(S(N)(=O)=O)ccc2Oc2ccc(F)cc2F)c2cc[nH]c(=O)c21 [Example 51, 4-(2,4-difluorophenoxy)-3-(1-methyl-7-oxo-6,7-dihydro-1H-pyrrolo[2,3-c]pyridin-3-yl)benzenesulfonamide] | 201 | 47 | 62
11 | CC(=O)Nc1ccc(C(=O)Nc2ccc(Oc3ccc(F)cc3F)c(-c3cn(C)c4c(=O)[nH]ccc34)c2)cc1 [Example 155, 4-(acetylamino)-N-[4-(2,4-difluorophenoxy)-3-(1-methyl-7-oxo-6,7-dihydro-1H-pyrrolo[2,3-c]pyridin-3-yl)phenyl]benzamide] | 310 | 27.8 | 163
12 | CCS(=O)(=O)Nc1ccc(Oc2ccc(F)cc2F)c(-c2cn(C)c3c(=O)[nH]c(C(=O)NCCN4CCN(C)CC4)cc23)c1 [Example 197, 3-{2-(2,4-difluorophenoxy)-5-[(ethylsulfonyl)amino]phenyl}-1-methyl-N-[2-(4-methylpiperazin-1-yl)ethyl]-7-oxo-6,7-dihydro-1H-pyrrolo[2,3-c]pyridine-5-carboxamide] | 67.6 | 2.05 | 4.23
13 | CCS(=O)(=O)c1ccc(Oc2ccc(C)cc2Cl)c(-c2cn(C)c3c(=O)[nH]ccc23)c1 [Example 73, 3-[2-(2-chloro-4-methylphenoxy)-5-(ethylsulfonyl)phenyl]-1-methyl-1,6-dihydro-7H-pyrrolo[2,3-c]pyridin-7-one] | 194 | 43 | 21
14 | CCS(=O)(=O)Nc1ccc(Oc2ccc(F)cc2F)c(-c2cn(C)c3c(=O)[nH]c(C(=O)NCCN4CCOCC4)cc23)c1 [Example 196, 3-{2-(2,4-difluorophenoxy)-5-[(ethylsulfonyl)amino]phenyl}-1-methyl-N-[2-(morpholin-4-yl)ethyl]-7-oxo-6,7-dihydro-1H-pyrrolo[2,3-c]pyridine-5-carboxamide] | 30.9 | 1.66 | 9.64
15 | Cc1noc(C)c1S(=O)(=O)NCc1ccc(Oc2ccc(F)cc2F)c(-c2cn(C)c3c(=O)[nH]ccc23)c1 [Example 140, N-[4-(2,4-difluorophenoxy)-3-(1-methyl-7-oxo-6,7-dihydro-1H-pyrrolo[2,3-c]pyridin-3-yl)benzyl]-3,5-dimethyl-1,2-oxazole-4-sulfonamide] | 1820 | 490 | 817
16 | CCS(=O)(=O)C(C)(C)c1ccc(Oc2ccc(F)cc2F)c(-c2cn(C)c3c(=O)[nH]ccc23)c1 [Example 54, 3-{2-(2,4-difluorophenoxy)-5-[2-(ethylsulfonyl)propan-2-yl]phenyl}-1-methyl-1,6-dihydro-7H-pyrrolo[2,3-c]pyridin-7-one] | 21 | 3.4 | 26
17 | Cn1cc(-c2cc(CS(=O)(=O)N3CCOCC3)ccc2Oc2ccc(F)cc2F)c2cc[nH]c(=O)c21 [Example 95, 3-{2-(2,4-difluorophenoxy)-5-[(morpholin-4-ylsulfonyl)methyl]phenyl}-1-methyl-1,6-dihydro-7H-pyrrolo[2,3-c]pyridin-7-one] | 8 | 4.2 | 2.1
18 | Cn1cc(-c2cc(S(C)(=O)=O)ccc2OC2CCOCC2)c2cc[nH]c(=O)c21 [Example 24, 1-methyl-3-[5-(methylsulfonyl)-2-(tetrahydro-2H-pyran-4-yloxy)phenyl]-1,6-dihydro-7H-pyrrolo[2,3-c]pyridin-7-one] | 231 | 17 | 89
19 | Cc1nn(-c2ccccc2)c(Cl)c1CNc1ccc(Oc2ccc(F)cc2F)c(-c2cn(C)c3c(=O)[nH]ccc23)c1 [Example 171, 3-[5-{[(5-chloro-3-methyl-1-phenyl-1H-pyrazol-4-yl)methyl]amino}-2-(2,4-difluorophenoxy)phenyl]-1-methyl-1,6-dihydro-7H-pyrrolo[2,3-c]pyridin-7-one] | 198 | 176 | 384
20 | CCS(=O)(=O)C(C)c1ccc(Oc2ccc(F)cc2F)c(-c2cn(C)c3c(=O)[nH]ccc23)c1 (single isomer, unassigned) [Example 56] | 36 | 13 | 18
21 | Cn1cc(-c2cc(NS(=O)(=O)Cc3ccccc3)ccc2Oc2ccc(F)cc2F)c2cc[nH]c(=O)c21 [Example 180, N-[4-(2,4-difluorophenoxy)-3-(1-methyl-7-oxo-6,7-dihydro-1H-pyrrolo[2,3-c]pyridin-3-yl)phenyl]-1-phenylmethanesulfonamide] | > 1000 | 34.9 | 59.3
22 | CCS(=O)(=O)Nc1ccc(Oc2ccc(F)cc2F)c(-c2cn(C)c3c(=O)[nH]c(C(=O)NCC#N)cc23)c1 [Example 189, N-(cyanomethyl)-3-{2-(2,4-difluorophenoxy)-5-[(ethylsulfonyl)amino]phenyl}-1-methyl-7-oxo-6,7-dihydro-1H-pyrrolo[2,3-c]pyridine-5-carboxamide] | 77.9 | 1.95 | 8.82
23 | Cn1cc(-c2ccccc2Oc2ccccc2)c2cc[nH]c(=O)c21 [Example 1, 1-methyl-3-(2-phenoxyphenyl)-1,6-dihydro-7H-pyrrolo[2,3-c]pyridin-7-one] | 584 | 85 | 313
24 | Cn1cc(-c2cc(S(C)(=O)=O)ccc2Oc2ccc3ccccc3c2)c2cc[nH]c(=O)c21 [Example 63, 1-methyl-3-[5-(methylsulfonyl)-2-(naphthalen-2-yloxy)phenyl]-1,6-dihydro-7H-pyrrolo[2,3-c]pyridin-7-one] | 187 | 74 | 66
